Data: US20210181182A1, “METHOD FOR IDENTIFICATION OF PERTURBAGENS OF PARTICULAR BIOLOGICAL PROCESSES AND CELL SYSTEMS WITHIN LIVING CELLS” (priority 2018, published 2021)
Where a name gives a salt, the structure may show the parent alone. Read-outs that look alike come from different tables or passages of the source. Marks after values point to notes of the source that are not given here.

Columns and labels:
DNA damage = experiment: FACTORIAL assay: weak / strong DNA damage TFAP clusters; assay type: cell-based, human; conditions: HepG2, 24 h, all tested concentrations
[1] = system: mitochondrial electron transport chain (mETC); experiment: FACTORIAL assay: similarity of TFAP to the consensus (invariant) mETC TFAP; assay type: cell-based, human
[2] = system: mitochondria membrane potential; conditions: HepG2, 1-hour incubation at concentrations below 60 μM; cited from earlier work
CDK = assay type: cell-based, human; conditions: HepG2, 24 h
HepG2 cells [3] = experiment: FACTORIAL assay: query of TFAPs against reference compound signatures of the Attagene TFAP database; assay type: cell-based, human; conditions: HepG2, 24 h
[4] = system: ubiquitin (Ub)/proteasome pathway (UPP); experiment: FACTORIAL assay: similarity of TFAP to the consensus UPP TFAP; assay type: cell-based, human
Akt kinase = experiment: FACTORIAL assay: similarity of TFAP to the invariant signature of Akt inhibitors; assay type: cell-based, human; conditions: for retrieved by querying the TFAP database with the invariant signature for AKT inhibitors: database of over 30,000 signatures
HG19/HepG2 cells = assay type: cell-based
Description: Cell viability was evaluated by the XTT (2,3-Bis-(2-Methoxy-4-Nitro-5-Sulfophenyl)-2H-Tetrazolium-5-Carboxanilide) assay (ATCC) in HG19/HepG2 cells. As a baseline, cells are used that were treated with corresponding dilutions of the vehicle (DMSO). The viability data are an average of two replicates. The viability threshold was set at 80% viability.

[5] = in humans; cited from earlier work
HepG2 cells [6] = experiment: FACTORIAL assay: transition of the TFAP signature of glitazones with concentration; assay type: cell-based, human; conditions: HepG2, 24-hour treatment
HDAC = experiment: FACTORIAL assay: similarity of TFAP to the consensus HDAC inhibitor TFAP; assay type: cell-based, human; conditions: for retrieved by querying the Attagene dataset with the HDAC TFAP: HepG2, ToxCast TFAP dataset
[7] = HepG2, 24 h incubation, each value at the concentration [uM]

Compound	Pearson correlation with the mETC TFAP, r [1, 7]	MMP assay hitCall [2]	further results
O=c1[nH]c(=O)n([C@H]2C[C@H](O)[C@@H](CO)O2)cc1F [floxuridine]			DNA damage TFAP elicited (weak or strong damage cluster) (DNA damage): only the weak damage TFAP
CCCCC(CC)COP(=O)(O)OCC(CC)CCCC (stereo not shown) [Bis(2-ethylhexyl) phosphate]	0.838	1	
O=S(=O)(c1ccc(Cl)cc1)c1ccc(Cl)cc1 [4,4′-Dichlorodiphenyl sulfone]	0.810	1	
Dinocap	0.897	1	
CCN(CC)C(=O)c1ccc(Nc2nc(OCC3CCCCC3)c3[nH]cnc3n2)cc1 [NU6140, reference compound]			concentration with signature similar to the invariant signature for CDK inhibitors (CDK): 6.7 µM; similarity r to the signature for a cadmium salt (HepG2 cells [3]; at 20 uM): 0.71
triphenyltin			retrieved by querying the Attagene dataset with the invariant UPP signature ([4]; HepG2, ToxCast TFAP dataset): retrieved
CCN(CC)c1ccc2c(-c3ccccc3C(=O)O)c3ccc(=[N+](CC)CC)cc-3oc2c1.[Cl-] [Rhodamine B]	0.810	0	
CCO [ethanol]			retrieved by querying the TFAP database with the invariant signature for AKT inhibitors (Akt kinase): retrieved
CCc1cccc(C)c1N(C(=O)CCl)[C@@H](C)COC [S-Metolachlor]	0.856	0	
Cc1c(C)c2c(c(C)c1O)CCC(C)(COc1ccc(CC3SC(=O)NC3=O)cc1)O2 (stereo not shown) [Troglitazone]			cell death (HG19/HepG2 cells): caused cell death; maximum plasma concentration [5]: 6.4 µM; concentration of transformation into tertiary signature (HepG2 cells [6]): 60 µM; concentration of transformation of primary TFAP into secondary TFAP (threshold for off-target effects) (HepG2 cells [6]): 20 µM; similarity r with the TFAP for hydrogen peroxide (HepG2 cells [3]; at 60 uM): > 0.8
CCc1cc(Cc2cc(CC)cc(C(C)(C)C)c2O)c(O)c(C(C)(C)C)c1	0.827	1	
Cc1ccc(-c2cc(C(F)(F)F)nn2-c2ccc(S(N)(=O)=O)cc2)cc1 [Celecoxib, reference compound]			Pearson correlation with the mETC TFAP, r ([1]; 24 h): 0.883
Mancozeb	0.867	0*	
C[S+](C)[O-] [DMSO]			retrieved by querying the TFAP database with the invariant signature for AKT inhibitors (Akt kinase): retrieved
COC(=O)Nc1ccc(Cl)c(Cl)c1 [Swep]	0.927	1	
N.N.[Cl][Pt][Cl] [Cisplatin, reference compound]	0.824	0*	cell numbers at the end of incubation (HG19/HepG2 cells): significantly reduced cell numbers
CCOC(=O)[C@@H](C)Oc1ccc(Oc2nc3ccc(Cl)cc3o2)cc1 [Fenoxaprop-P-ethyl]	0.827	0	
CCC(C)(c1ccc(O)cc1)c1ccc(O)cc1 [Bisphenol B]	0.861	1	
O.O.O.O.[Na+].[O-]c1ccccc1-c1ccccc1 [Sodium 2-phenylphenate tetrahydrate]	0.807	1	
Nc1c2c(nc3ccccc13)CCCC2 [Tacrine, reference compound]		0*	Pearson correlation with the mETC TFAP, r ([1]; 24 h): 0.810
CN(C)c1ccc(C(=N)c2ccc(N(C)C)cc2)cc1 [auramine, auramine O]			DNA damage TFAP elicited (weak or strong damage cluster) (DNA damage): only the strong damage TFAP
CC(C)NC[C@@H](C(=O)N1CCN(c2ncnc3c2[C@H](C)C[C@H]3O)CC1)c1ccc(Cl)cc1 [GDC-0068, Ipatasertib, reference compound]			similarity r to the invariant signature of AKT inhibitors (Akt kinase): > 0.80
CCc1ccc(CCOc2ccc(CC3SC(=O)NC3=O)cc2)nc1 (stereo not shown) [pioglitazone]			concentration of transformation of primary TFAP into secondary TFAP (threshold for off-target effects) (HepG2 cells [6]): 180 µM
COP(=O)(OC)O/C(=C\Cl)c1cc(Cl)c(Cl)cc1Cl [Z-Tetrachlorvinphos]	0.892	1	

Compound	Pearson correlation with the mETC TFAP, r [1, 7]	MMP assay hitCall [2]	further results
Fc1ccc([C@@H]2CCNC[C@H]2COc2ccc3c(c2)OCO3)cc1 [paroxetine, reference compound]			retrieved by querying the TFAP database with the invariant signature for AKT inhibitors (Akt kinase): retrieved
NC(=O)N/N=C/c1ccc([N+](=O)[O-])o1 [Nitrofurazone, reference compound]		0*	Pearson correlation with the mETC TFAP, r ([1]; 24 h): 0.856
CO/C=C(/C(=O)OC)c1ccccc1Oc1cc(Oc2ccccc2C#N)ncn1 [Azoxystrobin]	0.894	0*	
CC(/C=C/C(=O)NO)=C\[C@@H](C)C(=O)c1ccc(N(C)C)cc1 [trychostatin]			retrieved by querying the Attagene dataset with the HDAC TFAP (HDAC): retrieved
CC(C)C(=O)O [isobutyric acid]			retrieved by querying the Attagene dataset with the HDAC TFAP (HDAC): retrieved
[Cl][Cd][Cl] [cadmium chloride]			retrieved by querying the Attagene dataset with the invariant UPP signature [4]: retrieved
O=c1[nH]cc(F)c(=O)[nH]1 [5-fluorouracil]			DNA damage TFAP elicited (weak or strong damage cluster) (DNA damage): only the weak damage TFAP
CCc1cnn2c(NCc3ccc[n+]([O-])c3)cc(N3CCCC[C@H]3CCO)nc12 [Dinaciclib, reference compound]			similarity r to the invariant signature for CDK inhibitors (CDK; over three logs of concentrations): > 0.85
COC(=O)N(C(=O)N1CO[C@@]2(C(=O)OC)Cc3cc(Cl)ccc3C2=N1)c1ccc(OC(F)(F)F)cc1 [Indoxacarb]	0.887	1	
Chlorpyrifos oxon	0.827	1	
COP(=S)(OC)SCn1nnc2ccccc2c1=O [Azinphos-methyl]	0.823	0*	
Cn1nccc1Nc1nccc(-c2ccn([C@H](CO)c3ccc(Cl)c(F)c3)c(=O)c2)n1 [GDC-0994]			signature match at higher concentrations (HDAC inhibitors) (HDAC; HepG2, 24 h, above 2.2 uM): matched the invariant signature of HDAC inhibitors
Cc1cc(C)c(C2=C(OC(=O)CC(C)(C)C)C3(CCCC3)OC2=O)c(C)c1 [Spiromesifen]	0.816	1	
CC/C(=C(/CC)c1ccc(O)cc1)c1ccc(O)cc1 [Diethylstilbestrol, reference compound]		1	Pearson correlation with the mETC TFAP, r ([1]; 24 h): 0.812
Bisphenol A glycidyl methacrylate	0.939	1	
CN(C)CCCN1c2ccccc2CCc2ccc(Cl)cc21 [Clomipramine hydrochloride, reference compound]		0*	Pearson correlation with the mETC TFAP, r ([1]; 24 h): 0.806
Oc1ccc(Cc2ccc(O)cc2)cc1 [Bisphenol F]	0.835	1	
CO/C=C(/C(=O)OC)c1ccccc1COc1cccc(C(F)(F)F)n1 [Picoxystrobin]	0.885	1	
CNc1cnn(-c2cccc(C(F)(F)F)c2)c(=O)c1Cl [Norflurazon]		0	
O=C(O)Cc1cc(I)c(Oc2ccc(O)c(I)c2)c(I)c1 [Tiratricol, reference compound]		0	
CC(C)(C)c1cc([N+](=O)[O-])cc(C(C)(C)C)c1O [2,6-Di-tert-butyl-4-nitrophenol]		1	
CON(C)C(=O)Nc1ccc(Cl)c(Cl)c1 [Linuron]		1	
Cc1cc(C2CC2)nc(Nc2ccccc2)n1 [Cyprodinil]		0	
C[Si](Cn1cncn1)(c1ccc(F)cc1)c1ccc(F)cc1 [Flusilazole]		1	
